Reference: patent US20220380286A1, “METHOD FOR PRODUCING 2,2'-BIS(CARBOXYMETHOXY)-1,1'-BINAPHTHYL” (HONSHU CHEMICAL INDUSTRY CO., LTD., priority 2019, published 2022)

Assay: solubility in water (concentration of saturated solution)
Assay type: physicochemical
Conditions: 30° C., crystals filtered in Example 2
Protocol: After two hours, the reaction solution was gradually cooled and filtered at 25° C. (corresponding to the separation step of the present invention) to obtain crystals. […] The crystals were washed with water (18 g) and then washed with methyl isobutyl ketone (18 g) to obtain 109.0 g of a sodium salt of 2,2′-bis(carboxymethoxy)-1,1′-binaphthyl. For the removal of a mother liquor during the filtration, centrifugal force (small centrifuge H-122, manufactured by KOKUSAN Co., Ltd.) was utilized.

In the case of `O=C([O-])COc1ccc2ccccc2c1-c1c(OCC(=O)[O-])ccc2ccccc12.[Na+].[Na+]` [sodium salt of 2,2′-bis(carboxymethoxy)-1,1′-binaphthyl], the “concentration of saturated solution in water” value is reported as 3.8 wt %.
